Data taken from PubChem BioAssay (NCI).
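Test compounds were applied to cells in 96-well plates for 48 hours at 5 doses. The concentration for full growth arrest is given as TGI.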

Tests used:
Assay in all cases: inhibition of tumour cell growth, NCI panel, 48 h
[1] = tested on: DMS 273 small cell lung
[2] = tested on: RPMI-8226 leukemia
[3] = tested on: HL-60(TB) leukemia
[4] = tested on: HCT-116 colon
[5] = tested on: K-562 leukemia
[6] = tested on: KM20L2 colon
[7] = tested on: A498 renal
[8] = tested on: MOLT-4 leukemia
[9] = tested on: HOP-92 NSCLC
[10] = tested on: UO-31 renal
[11] = tested on: CAKI-1 renal
[12] = tested on: HCT-15 colon
[13] = tested on: M14 melanoma
[14] = tested on: SF-268 CNS
[15] = tested on: TK-10 renal
[16] = tested on: SK-MEL-2 melanoma
[17] = tested on: SW-620 colon
[18] = tested on: UACC-62 melanoma
[19] = tested on: SK-MEL-5 melanoma
[20] = tested on: U251 CNS
[21] = tested on: NCI-H522 lung
[22] = tested on: RXF 393 renal
[23] = tested on: OVCAR-8 ovarian
[24] = tested on: A549 NSCLC
[25] = tested on: DLD-1 colon
[26] = tested on: IGROV1 ovarian
[27] = tested on: HT29 colon
[28] = tested on: KM12 colon
[29] = tested on: SF-295 CNS
[30] = tested on: LOX IMVI melanoma
[31] = tested on: COLO 205 colon
[32] = tested on: M19-MEL melanoma
[33] = tested on: HOP-18 NSCLC
[34] = tested on: HOP-62 NSCLC
[35] = tested on: NCI-H23 lung
[36] = tested on: OVCAR-3 ovarian
[37] = tested on: OVCAR-4 ovarian
[38] = tested on: SF-539 CNS
[39] = tested on: SNB-75 CNS
[40] = tested on: HCC-2998 colon
[41] = tested on: EKVX NSCLC
[42] = tested on: 786-0 renal
[43] = tested on: SK-OV-3 ovarian
[44] = tested on: LXFL 529 NSCLC
[45] = tested on: SK-MEL-28 melanoma
[46] = tested on: UACC-257 melanoma
[47] = tested on: NCI-H460 lung
[48] = tested on: MALME-3M melanoma
[49] = tested on: DMS 114 small cell lung
[50] = tested on: SNB-19 CNS
[51] = tested on: NCI-H226 lung
[52] = tested on: SN12C renal
[53] = tested on: RXF-631 renal
[54] = tested on: OVCAR-5 ovarian
[55] = tested on: ACHN renal
[56] = tested on: SNB-78 CNS
[57] = tested on: XF 498 CNS
[58] = tested on: CCRF-CEM leukemia

Measured: TGI

CCOC(=O)C(=O)Nc1nc2c(OCC)cccc2s1
not listed: [57] | [58]
> 100 µM: all other assays above

Cc1n[nH]c(=S)n(C)c1=S
not listed: [3] | [11] | [19] | [27] | [28] | [40] | [46]
> 100 µM: all other assays above
